Results from paper PMC3445454, “Broad and Cross-Clade CD4^+ T-Cell Responses Elicited by a DNA Vaccine Encoding Highly Conserved and Promiscuous HIV-1 M-Group Consensus Peptides” (PLoS ONE, 2012).
Residue numbers refer to the chain shown, from its start. Read-outs that look alike come from different tables or passages of the source.

What was measured:
Assay in all cases: biochemical
[1] = molecular target: HLA-DR DRB1*04:01 (Homo sapiens, UniProt P01903+P01911, A100K/A169T/F76Y/I96L/K127E/L162R/M171V/N62H/P40V/Q125Y/R42H/S133A/S149N/S66Y/V115G/V209L/W38E); format: binding
[2] = molecular target: HLA-DR DRB1*10:01 (Homo sapiens, UniProt P01903+P01911, A100R/A169T/D57E/F55L/F60V/F69Y/F76Y/I96L/L162R/M171V/P40V/Q260P/Q39E/Q99R/R195Q/R42F/S149N/S66Y/T210M/V115G/V67A/W38E/Y59R/Y61H); format: binding
[3] = molecular target: HLA-DR DRB1*07:01 (Homo sapiens, UniProt P01903+P01911, A100R/A102G/A103Q/D57E/D86V/E43K/F76Y/K127E/L162R/M171V/P40G/Q125H/Q99D/R33Q/R42Y/R54Q/S133A/S66F/T210M/V115G/Y107V/Y59L/Y89S); format: binding
[4] = molecular target: HLA-DR DRB1*13:02 (Homo sapiens, UniProt P01903+P01911, A100E/A169T/K41T/L162R/M171V/P40S/Q125H/Q178H/Q39Y/Q99D/R42S/S66N/T262R/V115G/W38E/Y61H); format: binding
HLA-DR DRB1*13:02, sequence (P01903 26-254 limits assumed, other chains not shown): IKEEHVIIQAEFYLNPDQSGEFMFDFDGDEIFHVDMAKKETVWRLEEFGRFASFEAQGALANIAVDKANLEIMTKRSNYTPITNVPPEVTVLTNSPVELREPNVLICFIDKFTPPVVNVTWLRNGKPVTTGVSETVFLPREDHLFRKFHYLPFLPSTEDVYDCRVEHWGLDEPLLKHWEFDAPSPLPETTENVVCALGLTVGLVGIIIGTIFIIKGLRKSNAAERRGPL

[5] = molecular target: HLA-DR DRB1*01:01 (Homo sapiens, UniProt P01903+P01911, A100R/D57E/F55L/F60I/F76Y/I96L/L162R/M171V/P40L/Q125E/R42F/V115G/Y59C); format: binding
[6] = molecular target: HLA-DR DRB1*16:02 (Homo sapiens, UniProt P01903+P01911, A100R/F76Y/I96L/Q99D/V115G); format: binding
[7] = molecular target: HLA-DR DRB3*01:01 (Homo sapiens, UniProt P01903+P79483); format: binding
[8] = molecular target: T1, HLA-DP DPA1*01:03/DPB1*04:01 (Homo sapiens, UniProt P04440+P20036); format: binding
T1 sequence (P20036 29-260): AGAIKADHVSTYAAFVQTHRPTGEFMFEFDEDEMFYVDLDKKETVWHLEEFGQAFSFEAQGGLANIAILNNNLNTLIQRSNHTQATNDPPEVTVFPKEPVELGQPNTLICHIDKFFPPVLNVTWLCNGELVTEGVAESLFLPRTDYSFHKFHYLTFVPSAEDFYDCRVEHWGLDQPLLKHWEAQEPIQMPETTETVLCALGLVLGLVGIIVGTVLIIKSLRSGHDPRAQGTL
T1 sequence (P04440 30-258): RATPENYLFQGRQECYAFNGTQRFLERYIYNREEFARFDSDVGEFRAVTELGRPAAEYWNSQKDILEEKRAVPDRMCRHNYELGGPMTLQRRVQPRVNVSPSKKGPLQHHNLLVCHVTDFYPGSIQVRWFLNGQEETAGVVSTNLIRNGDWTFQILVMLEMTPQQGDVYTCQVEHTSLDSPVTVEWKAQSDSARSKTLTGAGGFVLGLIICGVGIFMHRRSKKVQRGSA

[9] = molecular target: T2, HLA-DP DPA1*02:01/DPB1*14:01 (Homo sapiens, UniProt P04440+P20036, A65V/A84D/A85E/E86D/F191V/F38H/G113D/G114E/G40L/I94L/K142R/L158P/L37V/M105V/M116V/M62Q/P115A/Q81R/R125K/T114A/T199I/T259P); format: binding
T2 sequence (P20036 29-260 A42M/M62Q/Q81R/T114A/K142R/L158P/F191V/T259P): T1 sequence (P20036 29-260) with A14M, M34Q, Q53R, T86A, K114R, L130P, F163V, T231P
T2 sequence (P04440 30-258 L37V/F38H/G40L/A65V/A84D/A85E/E86D/I94L/M105V/G113D/G114E/P115A/M116V/R125K/T199I/R223Q): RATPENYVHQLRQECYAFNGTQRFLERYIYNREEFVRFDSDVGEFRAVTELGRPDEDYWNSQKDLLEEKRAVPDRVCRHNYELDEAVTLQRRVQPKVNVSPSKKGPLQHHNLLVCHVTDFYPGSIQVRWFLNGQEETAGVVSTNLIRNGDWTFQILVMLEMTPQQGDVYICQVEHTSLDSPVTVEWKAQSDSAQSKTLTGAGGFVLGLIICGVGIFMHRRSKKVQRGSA

[10] = molecular target: HLA-DR DRB1*15:01 (Homo sapiens, UniProt P01903+P01911); format: binding
[11] = molecular target: HLA-DP DPA1*02:01/DPB1*01:01 (Homo sapiens, UniProt P04440+P20036, F191V/F38Y/F64Y/G113D/G114E/K142R/L158P/L37V/M105V/M116V/M62Q/P115A/Q81R/R125K/R223Q/T114A/T199I/T259P)
HLA-DP DPA1*02:01/DPB1*01:01, sequence (P20036 29-260 A42M/M62Q/Q81R/T114A/K142R/L158P/F191V/T259P, other chains not shown): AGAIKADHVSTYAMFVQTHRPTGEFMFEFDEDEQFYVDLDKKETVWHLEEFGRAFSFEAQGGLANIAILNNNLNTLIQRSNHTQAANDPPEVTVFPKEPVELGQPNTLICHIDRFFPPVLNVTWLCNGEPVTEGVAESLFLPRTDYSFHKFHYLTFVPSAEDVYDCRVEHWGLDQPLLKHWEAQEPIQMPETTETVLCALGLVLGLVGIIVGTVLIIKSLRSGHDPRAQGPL

[12] = molecular target: HLA-DR DRB1*11:01 (Homo sapiens, UniProt P01903+P01911, A100R/A169T/A87E/I96F/K41T/L162R/M171V/P40S/Q125H/Q178H/Q39Y/Q99D/R42S/S66Y/T262R/V115G/W38E); format: binding
HLA-DR DRB1*11:01, sequence (P01903 26-254 limits assumed, other chains not shown): as the sequence (P01903 26-254 limits assumed, other chains not shown) above

[13] = molecular target: HLA-DR DRB3*02:02 (Homo sapiens, UniProt P01903+P79483, A212P/D57E/F66Y/L67A/R103Q/R218S/R40L/S89Y/T80R/V86D/Y55F/Y59H); format: binding
HLA-DR DRB3*02:02, sequence (P01903 26-254 limits assumed): as the sequence (P01903 26-254 limits assumed, other chains not shown) above
HLA-DR DRB3*02:02, sequence (P79483 30-266 R40L/Y55F/D57E/Y59H/F66Y/L67A/T80R/V86D/S89Y/R103Q/A212P/R218S limits assumed): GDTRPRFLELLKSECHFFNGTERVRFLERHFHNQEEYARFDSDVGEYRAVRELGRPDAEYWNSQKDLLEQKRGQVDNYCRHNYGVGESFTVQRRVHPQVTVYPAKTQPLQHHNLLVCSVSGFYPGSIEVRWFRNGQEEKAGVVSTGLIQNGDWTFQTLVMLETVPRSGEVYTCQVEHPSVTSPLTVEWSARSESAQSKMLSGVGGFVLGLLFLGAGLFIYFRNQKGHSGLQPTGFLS

[14] = read-out: Binding capacity/IC50 (nM) DRB1*04:01
[15] = read-out: Binding capacity/IC50 (nM) DRB1*10:01
[16] = read-out: Binding capacity/IC50 (nM) DRB1*07:01
[17] = read-out: Binding capacity/IC50 (nM) DRB1*13:02
[18] = read-out: Binding capacity/IC50 (nM) DRB1*01:01
[19] = read-out: Binding capacity/IC50 (nM) DRB1*16:02
[20] = read-out: Binding capacity/IC50 (nM) DRB3*01:01
[21] = read-out: Binding capacity/IC50 (nM) DPA1*02:01 DPB1*14:01
[22] = read-out: Binding capacity/IC50 (nM) DRB1*11:01
[23] = read-out: Binding capacity/IC50 (nM) DRB3*02:02
[24] = read-out: Binding capacity/IC50 (nM) DPA1*01:03 DPB1*04:01
[25] = read-out: Binding capacity/IC50 (nM) DRB1*15:01

SMILES	IC50 [1, 14] [nM]	IC50 [2, 15] [nM]	IC50 [3, 16] [nM]	IC50 [4, 17] [nM]	IC50 [5, 18] [nM]	IC50 [6, 19] [nM]	IC50 [7, 20] [nM]	IC50 [8] [nM]	IC50 [9, 21] [nM]	IC50 [10] [nM]	IC50 [11] [µM]	IC50 [12, 22] [nM]	IC50 [13, 23] [nM]	IC50 [8, 24] [nM]	IC50 [10, 25] [nM]	IC50 [7] [nM]	IC50 [13] [nM]	also measured
CC[C@H](C)[C@H](NC(=O)[C@H](CCCCN)NC(=O)[C@H](CCC(N)=O)NC(=O)[C@@H](NC(=O)[C@H](C)NC(=O)[C@H](CCC(=O)O)NC(=O)[C@@H](N)[C@@H](C)O)C(C)C)C(=O)N[C@@H](C)C(=O)N[C@H](C(=O)N[C@@H](CCC(=O)O)C(=O)N[C@@H](CO)C(=O)N[C@H](C(=O)N[C@H](C(=O)N[C@H](C(=O)N[C@@H](Cc1c[nH]c2ccccc12)C(=O)NCC(=O)N[C@@H](CCCCN)C(=O)N[C@H](C(=O)N1CCC[C@H]1C(=O)N[C@@H](CCCCN)C(=O)N[C@@H](Cc1ccccc1)C(=O)N[C@@H](CCCNC(=N)N)C(=O)N[C@@H](CC(C)C)C(N)=O)[C@@H](C)O)[C@@H](C)CC)C(C)C)[C@@H](C)CC)[C@@H](C)O [RT(369-391)]	146	24	20	1290	65	2130	6230	3220	78	447	1.54	329	8840	–	–	–	–	–
CC(C)C[C@H](NC(=O)[C@H](CCCCN)NC(=O)[C@@H](NC(=O)[C@H](CC(C)C)NC(=O)[C@@H]1CCCN1C(=O)[C@@H]1CCCN1C(=O)[C@@H](NC(=O)[C@H](CC(N)=O)NC(=O)[C@@H](NC(=O)[C@H](Cc1ccccc1)NC(=O)[C@H](CCC(=O)O)NC(=O)[C@H](Cc1c[nH]c2ccccc12)NC(=O)[C@@H](N)CCC(=O)O)C(C)C)[C@@H](C)O)C(C)C)C(=O)N[C@@H](Cc1c[nH]c2ccccc12)C(=O)N[C@@H](Cc1ccc(O)cc1)C(N)=O [RT(413-427)]	–	–	–	–	–	–	2390	–	1200	–	0.101	–	4.4	846	329	–	–	IC50 [1]: 42 nM; IC50 [2]: 12 nM; IC50 [3]: 39 nM; IC50 [4]: 2220 nM; IC50 [5]: 26 nM; IC50 [6]: 10 nM; IC50 [12]: 312 nM
CC[C@H](C)[C@H](NC(=O)[C@@H]1CCCN1C(=O)[C@H](CCC(=O)O)NC(=O)[C@@H](N)CCCCN)C(=O)N[C@H](C(=O)NCC(=O)N[C@@H](C)C(=O)N[C@@H](CCC(=O)O)C(=O)N[C@H](C(=O)N[C@@H](Cc1ccccc1)C(=O)N[C@@H](Cc1ccc(O)cc1)C(=O)N[C@H](C(=O)N[C@@H](CC(=O)O)C(=O)NCC(=O)N[C@@H](C)C(N)=O)C(C)C)[C@@H](C)O)C(C)C [RT(431-445)]	23	4.4	75	266	5.1	80	–	4660	–	–	0.205	3190	–	–	230	13	611	IC50 [9]: 1350 nM
CC[C@H](C)[C@H](NC(=O)[C@@H](NC(=O)[C@H](CCCCN)NC(=O)[C@@H](NC(=O)[C@@H]1CCCN1C(=O)[C@H](Cc1c[nH]c2ccccc12)NC(=O)[C@H](CCCNC(=N)N)NC(=O)CNC(=O)[C@H](C)NC(=O)[C@H](CC(C)C)NC(=O)[C@H](CCCCN)NC(=O)[C@H](CC(C)C)NC(=O)[C@@H](NC(=O)[C@H](Cc1ccccc1)NC(=O)[C@H](Cc1ccc(O)cc1)NC(=O)[C@H](C)NC(=O)[C@@H](NC(=O)[C@@H](N)CCC(=O)O)[C@@H](C)O)[C@@H](C)CC)C(C)C)C(C)C)C(N)=O [integrase(96-113)]	1770	13	1380	4410	4.3	106	583	–	12800	–	0.792	27	7470	232	284	–	–	–
CC[C@H](C)[C@H](NC(=O)[C@H](CCCCN)NC(=O)[C@@H](NC(=O)[C@@H](NC(=O)[C@@H](N)CCC(N)=O)[C@@H](C)CC)[C@@H](C)O)C(=O)N[C@@H](CCC(N)=O)C(=O)N[C@@H](CC(N)=O)C(=O)N[C@@H](Cc1ccccc1)C(=O)N[C@@H](CCCNC(=N)N)C(=O)N[C@H](C(=O)N[C@@H](Cc1ccc(O)cc1)C(=O)N[C@@H](Cc1ccc(O)cc1)C(=O)N[C@@H](CCCNC(=N)N)C(=O)N[C@@H](CC(=O)O)C(=O)N[C@@H](CO)C(=O)N[C@@H](CCCNC(=N)N)C(=O)N[C@@H](CC(=O)O)C(=O)N1CCC[C@H]1C(=O)N[C@H](C(=O)N[C@@H](Cc1c[nH]c2ccccc12)C(N)=O)[C@@H](C)CC)C(C)C [integrase(216-235)]	203	45	63	1930	0.7	7.1	–	1070	145	5.3	0.4	288	–	–	–	39	414	–
